According to article PMC10887214 (Biomedicines, 2024):

Key:
C57BL/6J mice [1] = assay: Open Field (OF); type: in vivo, mouse; conditions: i.p., WIN 0.5 mg/kg
Experimental: (§1) Animal housing. Forty-eight Male C57BL/6J mice were purchased from Janvier Labs (Le Genest-Saint-Isle, France) and were time-specifically housed in a 12 h light-dark cycle (lights on at 7 am), with ad libitum water and food in conditioned rooms (22 °C, humidity ~60%).
(§2) Behavior assays. All mice were subjected to a behavioral test battery that consisted of several general performance tasks of locomotor activity, exploratory and anxiety-like behavior, and learning and memory. Mice were divided into four groups: Vehicle, OS (2 mg/kg), WIN55 (0.5 mg/kg), or OS + WIN. Each group consisted of 7–14 mice that received two i.p injections before each test, with a 10 min interval between each injection. Veh + Veh were injected with PBS. Veh + WIN were injected with PBS and WIN55. Veh + OS were injected with PBS and OS. OS + WIN were injected with OS and WIN55. PBS was used as vehicle as it was used for dilution of drugs. Tests were performed in the order described below after 10 min of the last injection, with a 24 h interval between each test.
Open Field (OF): One day after the cage activity test, mice were tested in the OF paradigm. The OF aimed to test the OS, WIN, and OS + WIN effect on animal locomotion and exploratory behavior. Animals were placed in the test room one hour before starting the test. For the OF, animals were placed in a plexiglass box (60 × 60 × 60 cm) divided into three zones (center, periphery, and corners) for 10 min and left free to explore. Total distance and time in zones were counted. Here, more time in the center meant an anxiolytic effect, and a higher distance walking meant an increase in locomotor activity. For this test, we used Veh (n = 8), OS (n = 10), WIN (n = 7), OS + WIN (n = 8).

C57BL/6J mice [2] = assay: Home cage activity test; type: in vivo, mouse; conditions: i.p., OS 2 mg/kg, WIN 0.5 mg/kg, 21 h
Experimental: as §1, §2
Cage activity assessment: At P60, animals were moved to the cage activity room for one hour before injections for habituation.. The cage activity assessment consists of placing the mice in a transparent box which is placed between three infrared sensors (two on the cage’s side and one in its front) that count how many times the mice cross the infrared beams. The times of beams crossed in each 30 min were counted over a period of 24 h and used as a locomotor activity measurement. In addition, we also compared the total number of beams crossed during the day and night period. For this test, we used Veh (n = 10), OS (n = 9), WIN (n = 11), OS + WIN (n = 8).

C57BL/6J mice [3] = assay: Morris Water Maze (MWM); type: in vivo, mouse; conditions: i.p., WIN 0.5 mg/kg
Experimental: as §1, §2
Morris Water Maze (MWM): MWM [32] was used to assess the effects of OS, WIN, and OS + WIN in memory one day after the EPM test. MWM is a gold standard test to assess learning and memory consisting of 10 days of training and two probe trials in a pool with water at a temperature of 26 °C, with one submersed platform invisible to mice. Each mouse could try to find the platform for 100 s, four times per day, with an inter-trial interval of 15–30 min. In each trial, animals were released randomly from each of the four starting positions. This protocol of training was repeated for ten days (training sessions). The platform was removed on the 6th and 11th days, and the animals were left free to swim for 100 s (probe trials). Right after the first probe trial (day 6), animals were trained again with the platform at the same place. During the training sessions, the mean latency to find the platform for the session was calculated for each animal as the average of the four trials of the day. During the probe trials, the pool was divided into four equal virtual quadrants, and the time spent in the target quadrant (TQ) (i.e., the quadrant where the platform was located during the training sessions) was assessed as a measure of memory retention. For this test, we used Veh (n = 9), OS (n = 8), WIN (n = 8), OS + WIN (n = 14).

chimeric CB1/2 receptor = assay: Two-electrode voltage-clamp, chimeric CB1/2-GIRK1/GIRK2-RGS4 coupling system expressed in oocytes; conditions: WIN55,212-2 concentration–response

## Cc1c(C(=O)c2cccc3ccccc23)c2cccc3c2n1[C@H](CN1CCOCC1)CO3 [WIN55,212-2, reference compound]
C57BL/6J mice [1]; OS 2 mg/kg, 10 min test
  Total distance walked in open field (locomotion): neither OS nor WIN affected locomotion
C57BL/6J mice [1]
  Time spent in the periphery of open field compared to the control: spent less time in the periphery
C57BL/6J mice [2]
  Cage activity (beam crossings) 2 h after the beginning of night phase: did not change the activity
C57BL/6J mice [3]; OS 2 mg/kg, days 3, 4, 5, 6 and 8
  Time to find the platform in training sessions vs control: performed significantly worse than the control
C57BL/6J mice [3]
  Time spent in the target quadrant (TQ), first probe trial: ~ 25%
Chimeric CB1/2 receptor
  Receptor activation: activated by WIN55,212-2 in a concentration-dependent manner
